Series [1] can be described thus: Stability in human liver microsomes. The class given is ADME, microsome. The conditions noted are these: read-out: Stability. Background: Microsomes from liver hold many membrane-bound enzymes, among them those of drug oxidation.
The target of series [2] is T1, Mitogen-activated protein kinase kinase kinase 5 (Rattus norvegicus) (UniProt D3ZZH6).
T1 sequence (whole entry): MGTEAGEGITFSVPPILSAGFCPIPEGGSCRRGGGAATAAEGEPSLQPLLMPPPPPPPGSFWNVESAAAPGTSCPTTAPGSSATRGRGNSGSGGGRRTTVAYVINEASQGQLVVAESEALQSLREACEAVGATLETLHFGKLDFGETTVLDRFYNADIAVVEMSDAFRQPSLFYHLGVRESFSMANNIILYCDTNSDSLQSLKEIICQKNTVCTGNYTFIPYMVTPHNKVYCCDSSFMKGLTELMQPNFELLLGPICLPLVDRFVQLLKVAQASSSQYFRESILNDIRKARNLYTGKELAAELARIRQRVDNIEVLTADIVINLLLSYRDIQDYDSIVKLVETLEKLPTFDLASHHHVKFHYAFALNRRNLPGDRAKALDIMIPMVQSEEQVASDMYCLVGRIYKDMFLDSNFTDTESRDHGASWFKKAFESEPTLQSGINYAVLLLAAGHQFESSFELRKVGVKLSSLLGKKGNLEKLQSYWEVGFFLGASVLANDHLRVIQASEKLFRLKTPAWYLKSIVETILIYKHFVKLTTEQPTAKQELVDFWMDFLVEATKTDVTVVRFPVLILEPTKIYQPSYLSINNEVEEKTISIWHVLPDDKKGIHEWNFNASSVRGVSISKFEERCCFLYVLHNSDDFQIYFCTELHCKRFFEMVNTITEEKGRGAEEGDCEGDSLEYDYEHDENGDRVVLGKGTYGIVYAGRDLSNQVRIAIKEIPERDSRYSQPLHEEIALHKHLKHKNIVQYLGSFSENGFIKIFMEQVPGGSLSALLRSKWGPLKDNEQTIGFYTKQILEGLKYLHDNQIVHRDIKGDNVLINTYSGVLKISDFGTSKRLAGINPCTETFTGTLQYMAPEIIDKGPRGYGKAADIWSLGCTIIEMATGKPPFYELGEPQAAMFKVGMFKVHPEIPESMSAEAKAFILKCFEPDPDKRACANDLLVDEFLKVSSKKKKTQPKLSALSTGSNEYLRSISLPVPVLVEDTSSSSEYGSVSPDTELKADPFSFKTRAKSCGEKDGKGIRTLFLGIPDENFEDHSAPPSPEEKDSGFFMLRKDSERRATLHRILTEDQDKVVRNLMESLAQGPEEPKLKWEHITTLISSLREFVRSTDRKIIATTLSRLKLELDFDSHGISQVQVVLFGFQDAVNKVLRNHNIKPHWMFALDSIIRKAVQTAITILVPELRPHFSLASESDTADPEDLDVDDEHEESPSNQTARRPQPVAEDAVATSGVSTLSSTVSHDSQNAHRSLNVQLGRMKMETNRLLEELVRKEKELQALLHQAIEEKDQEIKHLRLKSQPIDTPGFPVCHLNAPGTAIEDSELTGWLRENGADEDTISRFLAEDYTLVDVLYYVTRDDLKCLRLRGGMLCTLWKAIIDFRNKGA
In words: Inhibition of […] in rat INS-1E cells assessed as reduction in TNFalpha-induced […] phosphorylation at ser207 residues up to 10 uM by immunoblot analysis. The class given is cell-based.

A short description of series [3]: Stability in rat liver microsomes. It counts as ADME, microsome. The settings on record: read-out: Stability.
For the next series, the target named is CYP2C9 (Homo sapiens, UniProt P11712). Put plainly: Inhibition of CYP2C9 (unknown origin) at 10 uM relative to control. The class given is ADME.
Sequence of CYP2C9 (P11712 whole entry): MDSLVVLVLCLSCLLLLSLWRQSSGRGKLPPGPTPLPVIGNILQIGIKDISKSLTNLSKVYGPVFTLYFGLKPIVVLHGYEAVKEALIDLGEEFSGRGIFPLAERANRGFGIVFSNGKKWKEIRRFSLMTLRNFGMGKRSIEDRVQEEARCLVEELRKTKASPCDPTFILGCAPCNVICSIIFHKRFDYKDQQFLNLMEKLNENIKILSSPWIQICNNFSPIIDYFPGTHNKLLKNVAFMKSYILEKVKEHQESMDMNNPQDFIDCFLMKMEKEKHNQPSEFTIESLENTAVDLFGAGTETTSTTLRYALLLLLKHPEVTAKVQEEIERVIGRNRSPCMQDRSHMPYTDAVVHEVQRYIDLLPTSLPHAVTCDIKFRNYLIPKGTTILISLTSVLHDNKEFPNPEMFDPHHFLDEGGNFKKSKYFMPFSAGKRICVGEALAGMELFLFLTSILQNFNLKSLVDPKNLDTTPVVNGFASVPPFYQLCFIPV
The target of a further series is CYP3A4 (Homo sapiens, UniProt P08684). In words: Inhibition of CYP3A4 (unknown origin) at 10 uM relative to control. The class given is ADME.
Sequence of CYP3A4 (P08684 whole entry): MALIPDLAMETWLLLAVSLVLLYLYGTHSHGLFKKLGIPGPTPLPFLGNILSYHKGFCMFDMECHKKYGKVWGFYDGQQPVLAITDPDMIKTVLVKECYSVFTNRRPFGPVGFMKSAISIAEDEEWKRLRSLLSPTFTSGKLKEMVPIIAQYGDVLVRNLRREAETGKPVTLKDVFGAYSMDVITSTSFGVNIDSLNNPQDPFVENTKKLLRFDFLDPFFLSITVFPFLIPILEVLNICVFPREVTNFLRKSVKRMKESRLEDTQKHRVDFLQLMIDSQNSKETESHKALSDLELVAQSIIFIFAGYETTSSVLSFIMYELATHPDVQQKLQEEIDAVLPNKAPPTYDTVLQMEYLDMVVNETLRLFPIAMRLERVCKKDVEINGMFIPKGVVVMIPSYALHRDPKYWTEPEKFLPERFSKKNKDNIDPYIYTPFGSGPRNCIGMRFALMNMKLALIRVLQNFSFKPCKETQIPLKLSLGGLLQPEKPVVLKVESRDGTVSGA
Series [4] is described as follows: Stability in mouse liver microsomes. The settings on record: read-out: Stability. It counts as ADME, microsome.
The target of another series is T2, CYP1A2 (Homo sapiens, UniProt P05177).
T2 sequence (P05177 whole entry): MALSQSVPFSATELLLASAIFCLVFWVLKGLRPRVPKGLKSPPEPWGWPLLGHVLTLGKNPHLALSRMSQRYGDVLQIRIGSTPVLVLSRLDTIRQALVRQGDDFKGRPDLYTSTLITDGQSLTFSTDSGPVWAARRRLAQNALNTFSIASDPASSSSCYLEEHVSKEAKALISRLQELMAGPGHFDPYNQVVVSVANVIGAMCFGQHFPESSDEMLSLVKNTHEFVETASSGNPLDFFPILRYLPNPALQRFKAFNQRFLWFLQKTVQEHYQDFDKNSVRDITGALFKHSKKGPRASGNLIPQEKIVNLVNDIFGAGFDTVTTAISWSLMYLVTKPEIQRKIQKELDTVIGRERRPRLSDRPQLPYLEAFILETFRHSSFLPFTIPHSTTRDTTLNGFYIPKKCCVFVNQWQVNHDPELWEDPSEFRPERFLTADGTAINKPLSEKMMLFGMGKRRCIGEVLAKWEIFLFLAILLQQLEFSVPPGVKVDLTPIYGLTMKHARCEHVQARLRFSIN
In words: Inhibition of CYP1A2 (unknown origin) at 10 uM relative to control. The class given is ADME.

The next series deals with CYP2D6 (Homo sapiens, UniProt P10635). In words: Inhibition of CYP2D6 (unknown origin) at 10 uM relative to control. The class given is ADME.
Sequence of CYP2D6 (P10635 whole entry): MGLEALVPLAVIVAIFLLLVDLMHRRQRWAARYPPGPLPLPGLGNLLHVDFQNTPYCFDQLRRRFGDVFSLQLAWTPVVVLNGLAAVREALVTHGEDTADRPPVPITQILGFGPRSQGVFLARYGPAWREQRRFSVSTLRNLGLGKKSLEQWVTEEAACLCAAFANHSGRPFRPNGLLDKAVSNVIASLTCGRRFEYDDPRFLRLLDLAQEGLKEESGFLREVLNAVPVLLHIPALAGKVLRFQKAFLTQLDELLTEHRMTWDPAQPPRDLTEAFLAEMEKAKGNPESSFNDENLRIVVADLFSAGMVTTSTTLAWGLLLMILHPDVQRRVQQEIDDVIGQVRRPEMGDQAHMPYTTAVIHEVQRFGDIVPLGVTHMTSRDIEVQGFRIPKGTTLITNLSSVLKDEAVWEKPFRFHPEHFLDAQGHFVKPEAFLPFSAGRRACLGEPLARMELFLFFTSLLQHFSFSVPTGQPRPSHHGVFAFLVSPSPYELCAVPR
Series [5] deals with T3, Mitogen-activated protein kinase kinase kinase 5 (Homo sapiens, UniProt Q99683).
T3 sequence (Q99683 whole entry): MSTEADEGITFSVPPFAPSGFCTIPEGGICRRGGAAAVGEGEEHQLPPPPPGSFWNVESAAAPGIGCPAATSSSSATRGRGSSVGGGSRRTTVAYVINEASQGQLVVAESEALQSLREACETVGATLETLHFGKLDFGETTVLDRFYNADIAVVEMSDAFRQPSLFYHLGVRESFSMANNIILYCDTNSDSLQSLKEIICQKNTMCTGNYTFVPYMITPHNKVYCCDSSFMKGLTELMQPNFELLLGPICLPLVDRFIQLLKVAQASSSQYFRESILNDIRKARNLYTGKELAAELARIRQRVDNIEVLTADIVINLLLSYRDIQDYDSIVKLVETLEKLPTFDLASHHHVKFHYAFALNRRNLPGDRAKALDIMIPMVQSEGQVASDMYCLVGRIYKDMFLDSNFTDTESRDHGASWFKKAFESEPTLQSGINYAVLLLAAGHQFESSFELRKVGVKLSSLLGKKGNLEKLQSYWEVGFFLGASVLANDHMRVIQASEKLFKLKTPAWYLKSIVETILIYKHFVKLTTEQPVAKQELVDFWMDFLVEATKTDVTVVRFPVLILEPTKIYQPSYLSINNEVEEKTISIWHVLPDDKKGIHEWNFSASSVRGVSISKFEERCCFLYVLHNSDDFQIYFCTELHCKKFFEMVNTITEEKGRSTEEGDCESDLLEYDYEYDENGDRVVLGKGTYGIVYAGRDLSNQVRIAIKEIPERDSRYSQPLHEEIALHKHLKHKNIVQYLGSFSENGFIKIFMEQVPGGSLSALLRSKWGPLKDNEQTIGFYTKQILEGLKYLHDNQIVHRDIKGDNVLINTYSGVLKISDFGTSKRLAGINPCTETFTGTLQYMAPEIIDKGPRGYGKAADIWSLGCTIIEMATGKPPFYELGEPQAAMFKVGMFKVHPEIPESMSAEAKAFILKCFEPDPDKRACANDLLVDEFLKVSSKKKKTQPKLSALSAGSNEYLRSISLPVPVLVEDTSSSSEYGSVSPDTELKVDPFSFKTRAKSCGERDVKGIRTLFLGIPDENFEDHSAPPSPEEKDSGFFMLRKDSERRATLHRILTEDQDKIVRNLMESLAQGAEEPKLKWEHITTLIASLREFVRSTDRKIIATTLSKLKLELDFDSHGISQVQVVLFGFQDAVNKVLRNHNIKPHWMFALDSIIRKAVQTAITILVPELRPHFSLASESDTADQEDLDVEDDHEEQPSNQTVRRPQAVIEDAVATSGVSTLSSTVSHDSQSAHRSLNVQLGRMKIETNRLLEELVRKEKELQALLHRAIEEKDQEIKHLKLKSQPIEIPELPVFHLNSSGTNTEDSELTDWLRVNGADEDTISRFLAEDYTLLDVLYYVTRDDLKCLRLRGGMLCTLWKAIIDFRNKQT
In words: Inhibition of stress-activated full length recombinant human N-terminal GST-tagged ASK1 expressed in baculovirus expression system using MKK6 as substrate pretreated for 10 mins followed by substrate addition by Alphascreen assay. On the technique in general: Alpha assays give light when donor and acceptor beads are brought close together.

Series [6] can be described thus: Solubility of the compound in phosphate buffered saline at pH 7.4. It counts as physicochemical. The settings on record: buffer.

Values after ≈ are worked out from the molar mass of the structure shown. Active and inactive are the calls of the source. The calls are words filed in the database; no cut-off is given here.

For the compound `CC(=O)Nc1cccc(Nc2ncc3ccccc3n2)c1`, the half-life in series [1] amounted to 6 min; in series [3], 4 min; in series [4] it was 2 min. The inhibition (as a rule, the change of the read-out against control, counted positive when it falls) in series [2] was “Active”. Moreover, the inhibition at 10 µM at CYP2C9 is 20%; against CYP3A4, -13%; on CYP1A2, 94%; against CYP2D6 it was 13%. The 50% inhibitory concentration (IC50) (as a rule, the concentration that gives 50% inhibition) in [5] was 900 nM. In addition, the solubility (in general, the dissolved amount per volume that the medium holds) in [6] was found to be 100 µM (≈ 27.8 µg/mL).

The values are drawn from ChEMBL document CHEMBL4184100, “Discovery of 2-arylquinazoline derivatives as a new class of ASK1 inhibitors” (Bioorg Med Chem Lett, 2018).
